The values that follow are results of earlier work, collected in US6897334B2 (Board of Regents of the University of Nebraska, priority 2003, dated 2005).

The conditions of this data set: background statement.

Regarding `CCOC(=O)CN(C)C(=N)N` [creatine ethyl ester, Creatine ethyl ester], the “solubility in an aqueous solution” value is “over 200 mg/ml”.
